Among the data in patent publication US20130035326A1 (AMBIT BIOSCIENCES CORPORATION, priority 2009, published 2013) are IC50 and Kd values, retold here.

One experiment deals with MV4-11 cells. The experiment can be described thus: MV4-11 cell proliferation assay (Alamar Blue). The format is cell-based. The following applies: Homo sapiens, MV4-11, 72 h, 3 days incubation. As for the experimental part:
The compounds disclosed herein were tested in an MV4-11 cell proliferation assay to determine their cellular potency against Flt3. MV4-11 cells carry ITD mutation within juxtamembrane domain of Flt3 kinase which renders the kinase constitutively active. […] This assay measures the potency of compounds as Flt3 inhibitors by measuring the reduction of Alamar Blue reagent by viable cells.
MV4-11 cells were grown in an incubator at 37° C. under 5% CO2 in Iscove's media (Celgro) with 10% FBS. The cell density was kept between 1e5 and 8e5 cells/mL.
On day one of the experiment, cells were harvested and spun at 500 g for 5 min at 4° C., the supernatant aspirated and the cells resuspended in Iscove's media with 0.5% FBS. Cell density was maintained at 7.5e5 to achieve maximum viability of the cells. The resuspended cells were incubated at 37° C. in 5% CO2 overnight.
On day two of the experiment, cells were diluted to 6.4e5/mL with Iscove's media with 0.5% FBS. 100 μL of the cell suspension (64,000 cells) were aliquoted into each well of a 96-well TC-treated plate. Compounds were added at 9 different concentrations, with half-log intervals alongside a control reference compound serving as a positive control. Final DMSO concentration was kept at 0.5% and final volume at 200 μL. The cells were then incubated at 37° C. under 5% CO2 for 3 days.
On day five of the experiment, 40 μL of Alamar Blue reagent was added to each well and the mixture was allowed to incubate for 3 hours. Alamar Blue fluorescence was measured using SoftMax Pro software at 560 nm (excitation) and 590 nm (emission). IC50s were generated as an average of duplicates and represents the concentration of test compound that achieves 50% inhibition of cellular proliferation compared to negative control.
In general terms: The colour change of resazurin is a common sign of viable cells or microbes.

Another experiment deals with T1, CSF-1R kinase (Homo sapiens, UniProt P07333).
T1 construct: made in house; host or cells: T7 phage display or HEK-293 cells
The experiment can be described thus: Competition binding assay, CSF-1R Kd. As to the method: (§1) In certain embodiments, competition binding assays were performed as described in Fabian et al., Nature Biotechnology 2005, 23,329-336.
(§2) Competition binding assays used herein were developed, validated and performed as described in Fabian et al., Nature Biotechnology 2005, 23,329-336. Kinases were produced as fusions to T7 phage (See, Fabian et al. or WO04/015142) or alternatively, the kinases were expressed in HEK-293 cells and subsequently tagged with DNA for PCR detection (See, WO08/005,310). For the binding assays, streptavidin-coated magnetic beads were treated with biotinylated affinity ligands for 30 min at room temperature to generate affinity resins. The liganded beads were blocked with excess biotin and washed with blocking buffer (SeaBlock (Pierce), 1% BSA, 0.05% Tween 20, 1 mM DTT) to remove unbound ligand and to reduce non-specific binding. Binding reactions were assembled by combining kinase, liganded affinity beads, and test compounds in 1× binding buffer (20% SeaBlock, 0.17×PBS, 0.05% Tween 20, 6 mM DTT). Test compounds were prepared as 100× stocks in DMSO and diluted into the aqueous environment. Kds were determined using an eleven point threefold serial dilutions. DMSO or control compounds were was added to control assays lacking a test compound. Primary screen assays were performed in polypropylene 384-well plates in a final volume of 20-40 μL, while Kd determinations were performed in polystyrene 96-well plates in a final volume of 135 μL. The assay plates were incubated at room temperature with shaking for 1 hour to allow the binding reactions to reach equilibrium, and the affinity beads were washed extensively with wash buffer (1×PBS, 0.05% Tween 20) to remove unbound protein. The beads were then resuspended in elution buffer (1×PBS, 0.05% Tween 20, 0.5 μM non-biotinylated affinity ligand) and incubated at room temperature with shaking for 30 min. The kinase concentration in the eluates was measured by quantitative PCR.

For the next experiment, the target named is T2, KIT kinase (Homo sapiens, UniProt P10721).
T2 construct: made in house; host or cells: T7 phage display or HEK-293 cells
As to the kind of experiment: Competition binding assay, KIT Kd. As to the method:
as §1, §2

For the next experiment, the target named is T3, FLT3 kinase (Homo sapiens, UniProt P36888).
T3 construct: made in house; host or cells: T7 phage display or HEK-293 cells
T3 sequence (P36888 27-993): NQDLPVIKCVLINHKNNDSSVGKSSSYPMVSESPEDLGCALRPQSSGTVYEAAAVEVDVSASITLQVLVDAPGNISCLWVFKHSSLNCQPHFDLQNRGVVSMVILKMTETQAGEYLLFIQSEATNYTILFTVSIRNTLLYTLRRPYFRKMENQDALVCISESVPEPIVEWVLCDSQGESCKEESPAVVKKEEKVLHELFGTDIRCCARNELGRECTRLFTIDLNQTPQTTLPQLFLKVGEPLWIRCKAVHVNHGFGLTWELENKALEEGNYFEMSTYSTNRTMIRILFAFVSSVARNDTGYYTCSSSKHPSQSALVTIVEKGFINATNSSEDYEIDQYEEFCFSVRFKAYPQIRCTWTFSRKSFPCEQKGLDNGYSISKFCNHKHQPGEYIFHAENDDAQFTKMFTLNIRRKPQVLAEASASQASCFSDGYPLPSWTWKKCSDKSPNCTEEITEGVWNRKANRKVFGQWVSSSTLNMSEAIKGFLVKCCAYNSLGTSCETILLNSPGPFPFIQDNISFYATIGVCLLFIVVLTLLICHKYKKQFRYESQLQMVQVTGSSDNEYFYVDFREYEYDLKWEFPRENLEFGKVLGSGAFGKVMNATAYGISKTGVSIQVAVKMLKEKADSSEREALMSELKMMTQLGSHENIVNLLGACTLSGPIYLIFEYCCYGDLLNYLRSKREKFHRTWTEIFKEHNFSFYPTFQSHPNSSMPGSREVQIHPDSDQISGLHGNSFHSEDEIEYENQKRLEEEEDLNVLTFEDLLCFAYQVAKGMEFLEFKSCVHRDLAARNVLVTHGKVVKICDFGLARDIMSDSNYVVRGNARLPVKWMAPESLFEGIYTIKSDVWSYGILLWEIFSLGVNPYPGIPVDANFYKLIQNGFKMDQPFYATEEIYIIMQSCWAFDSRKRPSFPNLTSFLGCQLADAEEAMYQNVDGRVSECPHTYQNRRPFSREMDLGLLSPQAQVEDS
As to the kind of experiment: Competition binding assay, FLT3 Kd. As for the experimental part:
as §1, §2

T1 sequence (P07333 20-972): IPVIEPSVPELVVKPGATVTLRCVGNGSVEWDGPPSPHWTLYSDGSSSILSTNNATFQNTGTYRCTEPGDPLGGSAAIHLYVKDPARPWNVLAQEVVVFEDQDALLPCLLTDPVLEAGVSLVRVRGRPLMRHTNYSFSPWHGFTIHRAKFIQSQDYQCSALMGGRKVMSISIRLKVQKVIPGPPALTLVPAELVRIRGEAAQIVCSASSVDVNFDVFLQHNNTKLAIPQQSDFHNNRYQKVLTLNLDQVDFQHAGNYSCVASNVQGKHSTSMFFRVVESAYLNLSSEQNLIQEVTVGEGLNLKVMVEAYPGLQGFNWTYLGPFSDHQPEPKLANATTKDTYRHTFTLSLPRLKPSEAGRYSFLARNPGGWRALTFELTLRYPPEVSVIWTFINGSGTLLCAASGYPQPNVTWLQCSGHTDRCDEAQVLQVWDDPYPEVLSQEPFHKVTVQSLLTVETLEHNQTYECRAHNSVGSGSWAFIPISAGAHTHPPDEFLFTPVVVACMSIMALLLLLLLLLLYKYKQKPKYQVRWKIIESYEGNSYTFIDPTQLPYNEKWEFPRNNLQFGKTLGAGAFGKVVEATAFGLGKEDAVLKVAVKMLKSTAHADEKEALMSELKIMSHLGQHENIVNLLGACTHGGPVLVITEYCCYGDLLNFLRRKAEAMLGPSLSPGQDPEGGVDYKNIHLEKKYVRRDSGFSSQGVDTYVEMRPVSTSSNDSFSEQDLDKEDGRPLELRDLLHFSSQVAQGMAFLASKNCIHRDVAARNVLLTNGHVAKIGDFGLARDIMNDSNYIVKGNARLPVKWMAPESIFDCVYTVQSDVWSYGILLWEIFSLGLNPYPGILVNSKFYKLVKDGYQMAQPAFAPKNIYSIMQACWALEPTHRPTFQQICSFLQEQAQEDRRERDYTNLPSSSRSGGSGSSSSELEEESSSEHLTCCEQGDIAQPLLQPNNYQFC
T2 sequence (P10721 26-976): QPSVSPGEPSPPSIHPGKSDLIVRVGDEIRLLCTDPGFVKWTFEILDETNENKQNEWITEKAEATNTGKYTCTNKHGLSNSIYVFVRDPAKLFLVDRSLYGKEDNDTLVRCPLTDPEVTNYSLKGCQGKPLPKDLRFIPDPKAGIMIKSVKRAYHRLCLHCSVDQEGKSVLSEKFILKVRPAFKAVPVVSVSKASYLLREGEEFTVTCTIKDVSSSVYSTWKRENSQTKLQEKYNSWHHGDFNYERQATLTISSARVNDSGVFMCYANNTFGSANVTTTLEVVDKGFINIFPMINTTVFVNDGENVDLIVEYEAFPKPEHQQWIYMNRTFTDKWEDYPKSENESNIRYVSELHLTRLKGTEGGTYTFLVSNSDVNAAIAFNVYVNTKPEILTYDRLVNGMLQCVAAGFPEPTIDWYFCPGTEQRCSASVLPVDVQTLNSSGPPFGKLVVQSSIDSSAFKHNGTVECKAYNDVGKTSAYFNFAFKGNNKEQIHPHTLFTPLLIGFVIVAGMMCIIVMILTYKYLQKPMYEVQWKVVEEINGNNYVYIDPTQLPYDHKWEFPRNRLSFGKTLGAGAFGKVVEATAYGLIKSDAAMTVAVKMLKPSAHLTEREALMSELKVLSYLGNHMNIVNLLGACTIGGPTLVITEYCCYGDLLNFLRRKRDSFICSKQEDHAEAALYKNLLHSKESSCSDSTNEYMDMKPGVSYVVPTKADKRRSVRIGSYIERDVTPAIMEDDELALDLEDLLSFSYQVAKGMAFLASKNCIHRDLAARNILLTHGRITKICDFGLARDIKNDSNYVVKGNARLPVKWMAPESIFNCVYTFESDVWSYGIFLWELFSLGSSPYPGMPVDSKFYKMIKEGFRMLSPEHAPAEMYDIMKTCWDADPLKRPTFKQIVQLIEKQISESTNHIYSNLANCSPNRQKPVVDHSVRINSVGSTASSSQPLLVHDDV

For `CC(C(=O)Nc1cc(C(C)(C)C)on1)c1ccc(-c2ccc(N)nc2)cc1` (racemic) [Example 71, 2-(4-(6-aminopyridin-3-yl)phenyl)-N-(5-tert-butylisoxazol-3-yl) propanamide], the 50% inhibitory concentration (IC50) in the experiment with MV4-11 cells was 0.01 to 0.1 µM. Moreover, the Kd at CSF-1R kinase lay in the range of 0.01 to 0.1 µM; at KIT kinase it was 0.01 to 0.1 µM; at FLT3 kinase it was 0.001 to 0.01 µM.
Regarding `CC(C)(C)c1cc(NC(=O)Nc2ccc(-c3ccc(NCCN4CCCCC4)nc3)cc2F)no1` [Example 27, 1-(5-tert-butylisoxazol-3-yl)-3-(2-fluoro-4-(6-(2-(piperidin-1-yl)ethylamino)pyridin-3-yl)phenyl)urea], the IC50 in the experiment with MV4-11 cells lay within 0.01 to 0.1 µM. In addition, the Kd was not above 0.01 µM on CSF-1R kinase, not above 0.001 µM on KIT kinase and not above 0.001 µM at FLT3 kinase.
For the compound `CC(C)(C)c1cc(NC(=O)Nc2ccc(-c3ccc(NCCCN4CCOCC4)nc3)cc2)no1` [Example 28, 1-(5-tert-butylisoxazol-3-yl)-3-(4-(6-(3-morpholinopropylamino)pyridin-3-yl)phenyl)urea], the IC50 in the experiment with MV4-11 cells was not above 0.001 µM. In addition, the Kd is not above 0.01 µM at CSF-1R kinase, not above 0.001 µM on KIT kinase and not above 0.001 µM on FLT3 kinase.
In the experiment with MV4-11 cells, `CN1CCCC1CCNc1ccc(-c2ccc(NC(=O)Nc3cc(C(C)(C)C)on3)cc2)cn1` (centres unmarked) [Example 29, 1-(5-tert-butylisoxazol-3-yl)-3-(4-(6-(2-(1-methylpyrrolidin-2-yl)ethylamino)pyridin-3-yl)phenyl)urea] displayed an IC50 of 0.001 to 0.01 µM. Further, the Kd on CSF-1R kinase is not above 0.01 µM; on KIT kinase, not above 0.001 µM; at FLT3 kinase it was not above 0.001 µM.
In the experiment on MV4-11 cells, `CCN1CCCC1CNc1ccc(-c2ccc(NC(=O)Nc3cc(C(C)(C)C)on3)cc2)cn1` (centres unmarked) [Example 30, 1-(5-tert-butylisoxazol-3-yl)-3-(4-(6-((1-ethylpyrrolidin-2-yl)methylamino)pyridin-3-yl)phenyl)urea] showed an IC50 of 0.01 to 0.1 µM. Moreover, the Kd at CSF-1R kinase is 0.01 to 0.1 µM; on KIT kinase, not above 0.001 µM; on FLT3 kinase, 0.001 to 0.01 µM.
Consider `CN(C(=O)Nc1cc(C(C)(C)C)on1)c1ccc(-c2ccc(N)nc2)cc1` [Example 31, 1-(4-(6-aminopyridin-3-yl)phenyl)-3-(5-tert-butylisoxazol-3-yl)-1-methylurea], for which the IC50 with MV4-11 cells is 0.01 to 0.1 µM. For the same compound, the Kd at CSF-1R kinase is not above 0.01 µM; on KIT kinase, not above 0.001 µM; on FLT3 kinase, not above 0.001 µM.
In turn, `CC(C)(F)c1cc(NC(=O)Nc2ccc(-c3ccc(N)nc3)cc2)on1` [Example 32, 5-(4-(3-(3-(2-fluoropropan-2-yl)isoxazol-5-yl)ureido)phenyl)pyridin-2-aminium methanesulfonate] registered a 50% inhibitory concentration (IC50) in the experiment on MV4-11 cells of 0.001 to 0.01 µM. Moreover, the Kd on CSF-1R kinase is not above 0.01 µM; on KIT kinase, not above 0.001 µM; on FLT3 kinase it was not above 0.001 µM.
Regarding `Nc1ccc(-c2ccc(NC(=O)Nc3cc(C4(C(F)(F)F)CC4)on3)cc2)cn1` [Example 33, 5-(4-(3-(5-(1-(trifluoromethyl)cyclopropyl)isoxazol-3-yl)ureido)phenyl)pyridin-2-aminium methanesulfonate], the IC50 in the experiment on MV4-11 cells was not above 0.001 µM. The figures for the Kd on CSF-1R kinase, at KIT kinase and on FLT3 kinase were not above 0.01 µM, not above 0.001 µM and not above 0.001 µM, respectively.
In turn, `CC(CF)(CF)c1cc(NC(=O)Nc2ccc(-c3ccc(N)nc3)cc2)no1` [Example 34, 5-(4-(3-(5-(1,3-difluoro-2-methylpropan-2-yl)isoxazol-3-yl)ureido)phenyl)pyridin-2-aminium methanesulfonate] returned an IC50 with MV4-11 cells not above 0.001 µM. The Kd on CSF-1R kinase was not above 0.01 µM; at KIT kinase, not above 0.001 µM; on FLT3 kinase it was not above 0.001 µM.
Turning to `CC(C)(c1cc(NC(=O)Nc2ccc(-c3ccc(N)nc3)cc2)no1)C(F)(F)F` [Example 35, methanesulfonate], the IC50 in the experiment with MV4-11 cells was not above 0.001 µM. The Kd on CSF-1R kinase is not above 0.01 µM; at KIT kinase, 0.001 to 0.01 µM; on FLT3 kinase it was not above 0.001 µM.
In the experiment on MV4-11 cells, `O=C(Nc1ccc(-c2ccc(NCCN3CCOCC3)nc2)cc1)Nc1cc(C2(C(F)(F)F)CC2)on1` [Example 36, 4-(2-(5-(4-(3-(5-(1-(trifluoromethyl)cyclopropyl)isoxazol-3-yl)ureido)phenyl)pyridin-2-ylamino)ethyl)morpholin-4-ium methanesulfonate] yielded an IC50 of 0.001 to 0.01 µM. The Kd is not above 0.01 µM on CSF-1R kinase, not above 0.001 µM on KIT kinase and not above 0.001 µM on FLT3 kinase.
In the case of `CC(CF)(CF)c1cc(NC(=O)Nc2ccc(-c3ccc(NCCN4CCOCC4)nc3)cc2)no1` [Example 37, 4-(2-(5-(4-(3-(5-(1,3-difluoro-2-methylpropan-2-yl)isoxazol-3-yl)ureido)phenyl)pyridin-2-ylamino)ethyl)morpholin-4-ium methanesulfonate], the IC50 in the experiment with MV4-11 cells fell in the range of 0.001 to 0.01 µM. Further, the Kd at CSF-1R kinase is not above 0.01 µM; at KIT kinase, not above 0.001 µM; on FLT3 kinase, not above 0.001 µM.
Compound `CC(C)(F)c1cc(NC(=O)Nc2ccc(-c3ccc(NCCN4CCOCC4)nc3)cc2)on1` [Example 38, 4,4-(2-(5-(4-(3-(3-(2-fluoropropan-2-yl)isoxazol-5-yl)ureido)phenyl)pyridin-2-ylamino)ethyl)morpholin-4-ium methanesulfonate] displayed an IC50 in the experiment with MV4-11 cells of 0.01 to 0.1 µM. In addition, the Kd was not above 0.01 µM on CSF-1R kinase, not above 0.001 µM at KIT kinase and 0.001 to 0.01 µM on FLT3 kinase.
In the experiment on MV4-11 cells, `CS(=O)(=O)CCNc1ccc(-c2ccc(CC(=O)Nc3cc(C4(C(F)(F)F)CC4)on3)cc2)cn1` [Example 188] had an IC50 not above 0.001 µM. Moreover, the Kd is 0.01 to 0.1 µM at CSF-1R kinase and 0.001 to 0.01 µM on KIT kinase.
In the experiment with MV4-11 cells, `Nc1cc(F)c(-c2ccc(CC(=O)Nc3cc(C4(C(F)(F)F)CC4)on3)cc2)cn1` [Example 189] came in with an IC50 not above 0.001 µM. In addition, the Kd at CSF-1R kinase was not above 0.01 µM; at KIT kinase, 0.001 to 0.01 µM.
Compound `CC(C)(C)c1cc(NC(=O)Cc2ccc(-c3cnc4ccc(=O)[nH]c4c3)cc2)no1` [Example 191] gave a 50% inhibitory concentration (IC50) with MV4-11 cells of 0.001 to 0.01 µM.

Broadly, the IC50 is the concentration that gives 50% inhibition. The low end stands for greater potency in that assay, the high end for weaker potency in that assay. A word on the Kd: it is the free concentration of one partner at which half of the binding sites on the other are occupied at equilibrium, for simple one-to-one binding.
